# In patent US5942532A, “2-substituted phenyl-benzimidazole antibacterial agents” (Ortho Pharmaceutical Corporation, priority 1997, dated 1999):
# Molecular target: T1, Kinase A and Spo0F (Bacillus subtilis, UniProt P16497)
# T1 construct: made in house; host or cells: recombinant E. coli
# T1 sequence (P16497 1-606): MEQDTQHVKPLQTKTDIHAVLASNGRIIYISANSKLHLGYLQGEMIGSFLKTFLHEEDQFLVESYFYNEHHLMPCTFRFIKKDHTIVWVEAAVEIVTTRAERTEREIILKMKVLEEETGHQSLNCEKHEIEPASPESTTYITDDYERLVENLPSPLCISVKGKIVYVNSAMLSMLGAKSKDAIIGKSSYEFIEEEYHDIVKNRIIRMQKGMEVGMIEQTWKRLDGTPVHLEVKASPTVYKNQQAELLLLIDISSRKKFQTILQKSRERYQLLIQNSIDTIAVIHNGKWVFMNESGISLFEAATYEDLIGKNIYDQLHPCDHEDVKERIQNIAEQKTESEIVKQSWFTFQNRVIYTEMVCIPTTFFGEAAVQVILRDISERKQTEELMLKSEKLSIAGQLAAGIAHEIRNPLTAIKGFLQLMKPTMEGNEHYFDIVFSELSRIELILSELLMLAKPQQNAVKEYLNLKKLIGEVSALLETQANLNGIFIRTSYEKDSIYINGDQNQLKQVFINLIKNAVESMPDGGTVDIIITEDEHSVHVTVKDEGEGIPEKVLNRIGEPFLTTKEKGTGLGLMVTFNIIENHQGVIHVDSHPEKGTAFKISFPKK
# Experiment: Autophosphorylation of Kinase A and Transphosphorylation of Spo0F Assay (HPK in vitro assay)
# Type: biochemical
# Conditions: Table 1, KinA/Spo0F phosphorylation, in µM
# Protocol: Autophosphorylation of Kinase A and Transphosphorylation of Spo0F Assay
# To study the effect of the compounds of the present invention on the signal transduction process in bacteria, the inhibiting effect of the compounds on the sporulation operon proteins Kinase A and Spo0F was examined. Specifically, the inhibition of autophosphorylation of Kinase A and the transphosphorylation of Spo0F was determined in the following assays. The Spo0F response regulator is the primary substrate for phosphorylation by the protein kinase, Kin A, involved in the sporulation process in bacteria. See D. Burbulys, K. A. Trach, J. A. Hoch, Cell, 64, 545-552 (1991). Spo0F and KinA were prepared from recombinant E. coli overexpressing the proteins (J. Cavanagh et al, Amino Acids, 6, 131-140 (1994) and references therein).
# The following stock reagents were either prepared and used promptly or stored at the indicated temperature:
# 8×Salts: 2 M KCl (5 mL), 1 M MgCl2 (800 mL), 1 M CaCl2 (100 mL), 10 mg/mL phenylmethylsulfonyl fluoride (200 mL), 1 M dithioreitol (50 mL), 0.25 M Na2 EDTA (32 mL) and H2 O 3.82 mL (-20° C.)
# 5×Loading Dye: 0.5M TRIS-HCl, pH 6.8 (7.5 mL), 10% SDS (2 mL) 0.1% bromophenol blue (0.5 mL), 100% glycerol (3 mL) and 12.5 M 2-mercaptoethanol (0.3 mL)
# 1-1.3 mg/mL KinA: 15 mM TRIS-HCl, pH 8.0, 6 mM KCl; 4 mM 2-mercaptoethanol;40% glycerol (-20° C.)
# 1 mg/mL Spo0F: 17.5 mM TRIS-HCl, pH 8.0; 0.7 mM KCl; 0.7 mM MgCl2; 0.7 mM CaCl2; 5 mM 2-mercaptoethanol; 30% glycerol (-20° C.)
# 5% Stacking Gel: 40% 29:1 acrylamide:bis acrylamide (1.25 mL), 0.5 M TRIS-HCl, pH 6.8 (2.5 mL), 10% SDS (0.1 mL), D-H2 O (6.15 mL) 10% ammonium persulfate (100 mL) and TEMED (25 mL)
# SDS Running Buffer: TRIS-BASE (3.02 g), glycine (14.4 g), SDS (1 g), D-H2 O (to 1 L)
# The reaction mixture was prepared from 8×Salts (87 μL), 1M TRIS, pH 8 (118 μL), 50% glycerol (63 μL), Spo0F (14.1 μL) and KinA (7.0 μL). Microcentrifuge tubes were charged with the reaction mixture (18.5 μL) and a 1.0 mM solution of the test compound in 5% DMSO (18.5 μL), and incubated for 15 min on ice. 100 mM ATP solution (3.0 μl, containing 625 μCi [^32 P]ATP) was added, and the mixture left for 10 minutes at room temperature. The reaction was quenched with 5× loading dye (10 μL per tube) and the samples were loaded on a prepared 5% Stacking Gel, or stored on dry ice until ready for use. The prepared wells were filled with SDS Running Buffer, samples were loaded into the wells, and 80 volts were applied to the gel until the dye front reached the bottom of the stacking gel. The voltage was then increased to 250 volts until electrophoresis was complete. Radioactive bands in the gel corresponding to phosphorylated KinA and Spo0F were imaged and quantitated with a phosphoimager.
# If either enzyme was inhibited (as evidenced by the absence of labelled protein in the developed gel), an IC50 was calculated by running the assay with a range of inhibitor concentrations from 1 to 500 μM. After electrophoresis of the reaction mixtures, percent inhibition was determined by measuring the concentration of radioactive phosphorus with a phosphoimager and calculating the values using a software program (BioRad Molecular Analyst).
row,SMILES,IC50
1,N=C(N)c1ccc2nc(-c3ccc(-c4ccccc4)cc3)[nH]c2c1 [Example 2],86
2,N=C(N)c1ccc2nc(-c3ccc(C(F)(F)F)cc3)[nH]c2c1 [Example 3],169
3,N=C(N)c1ccc2nc(-c3ccc(N(c4ccccc4)c4ccccc4)cc3)[nH]c2c1 [Example 5],17.4
4,N=C(N)c1ccc2nc(-c3cc(OCc4ccccc4)cc(OCc4ccccc4)c3)[nH]c2c1 [Example 6],15.9
5,CC(C)(C)c1cc(-c2nc3ccc(C(=N)N)cc3[nH]2)cc(C(C)(C)C)c1O [Example 9],75.9
6,N=C(N)c1ccc2nc(-c3ccc(OCc4ccc([N+](=O)[O-])cc4)cc3)[nH]c2c1 [Example 11],19.4
7,CCCCCCCCCCOc1ccc(-c2nc3ccc(C(=N)N)cc3[nH]2)cc1OCCCCCCCCCC [Example 12],8.3
8,CCCCN(CCCC)c1ccc(-c2nc3ccc(C(=N)N)cc3[nH]2)cc1 [Example 14],35.5
9,N=C(N)c1ccc2nc(-c3ccc(OCc4ccccc4)c(OCc4ccccc4)c3)[nH]c2c1 [Example 16],50.7
10,N=C(N)c1ccc2nc(-c3ccc(F)cc3)[nH]c2c1 [Example 17],480
11,N=C(N)c1ccc2nc(-c3ccc(N(Cc4ccccc4)Cc4ccccc4)cc3)[nH]c2c1 [Example 26],17
12,COc1cc(OC)c(-c2nc3ccc(C(=N)N)cc3[nH]2)cc1Br [Example 28],66
13,CC(C)(C)c1cc(-c2nc3ccc(C(=N)N)cc3[nH]2)c(O)c(C(C)(C)C)c1 [Example 30],8.5
14,N=C(N)c1ccc2nc(-c3cc(I)cc(I)c3O)[nH]c2c1 [Example 31],30.8
15,N=C(N)c1ccc2nc(-c3cc([N+](=O)[O-])cc([N+](=O)[O-])c3O)[nH]c2c1 [Example 33],74.7

# The remaining lines, values ahead:
row,IC50,SMILES
1,30.8,N=C(N)c1ccc2nc(-c3cc(C(F)(F)F)cc(C(F)(F)F)c3)[nH]c2c1 [Example 7]
2,37.6,CCC(C)(C)c1ccc(-c2nc3ccc(C(=N)N)cc3[nH]2)cc1 [Example 8]
3,70.6,CC(C)(C)c1ccc(-c2nc3ccc(C(=N)N)cc3[nH]2)cc1 [Example 10]
4,21.5,N=C(N)c1ccc2nc(-c3ccc(C=Cc4ccccc4)cc3)[nH]c2c1 [Example 13]
5,60.8,N=C(N)c1ccc2nc(-c3ccc(OCc4ccccc4)cc3)[nH]c2c1 [Example 15]
6,254,N=C(N)c1ccc2nc(-c3cc(I)c(O)c(I)c3)[nH]c2c1 [Example 18]
7,100,N=C(N)c1ccc2nc(-c3cc(Cl)cc(Cl)c3)[nH]c2c1 [Example 19]
8,19,CC(C)(C)c1cc(-c2nc3ccc(C(=N)N)cc3[nH]2)cc(C(C)(C)C)c1 [Example 20]
9,31,N=C(N)c1ccc2nc(-c3cc(-c4ccccc4)cc(-c4ccccc4)c3)[nH]c2c1 [Example 21]
10,222,N=C(N)c1ccc2nc(-c3ccc(NCc4ccccc4)cc3)[nH]c2c1 [Example 22]
11,22,CC(C)(C)c1cc(-c2nc3ccc(C(=N)N)cc3[nH]2)ccc1O [Example 23]
12,35.6,N#CCCN(CCC#N)c1ccc(-c2nc3ccc(C(=N)N)cc3[nH]2)cc1 [Example 25]
13,51.1,N=C(N)c1ccc2nc(-c3cc(Br)cc(Br)c3O)[nH]c2c1 [Example 32]
14,4,CC(C)(C)c1cccc(-c2nc3ccc(C(=N)N)cc3[nH]2)c1O [Example 34]
15,155,N=C(N)c1ccc2nc(-c3cc(Cl)cc(Cl)c3O)[nH]c2c1 [Example 36]
16,171,COc1cc(Br)c(O)c(-c2nc3ccc(C(=N)N)cc3[nH]2)c1 [Example 37]

# Same assay, conditions: Table 1, KinA/Spo0F phosphorylation, read-out: IC50
row,SMILES,IC50 [µM]
1,CC(C)c1ccc(-c2nc3ccc(C(=N)N)cc3[nH]2)cc1 [Example 4],219
2,N=C(N)c1ccc2nc(-c3ccccc3O)[nH]c2c1 [Example 27],465
3,COc1c(-c2nc3ccc(C(=N)N)cc3[nH]2)cc(C(C)(C)C)cc1C(C)(C)C [Example 29],76
4,CC(C)(C)c1ccc(O)c(-c2nc3ccc(C(=N)N)cc3[nH]2)c1 [Example 35],64
